From patent US11707440B2 (priority 2017, dated 2023)

Legend:
[1] = system: patients with treatment-resistant depression (TRD); experiment: Response, remission and relapse rates (MADRS), Example 7; type: in vivo, human; conditions: Period 2 endpoint
From the text: A similar trend for remission (defined as MADRS total score≤10) was observed across groups. […] Response and remission rates at the end of the open-label and follow-up phases are presented by type of treatment in the double-blind and open-label phases in Table 161.

[2] = system: patients with treatment-resistant depression (TRD); experiment: GAD-7, Example 7; type: in vivo, human
Procedure: Overall illness severity was assessed on the Clinical Global Impression of Severity (CGI-S) scale (Guy, “ECDEU Assessment Manual for Psychopharmacology-Revised (DHEW Publ No ADM 76-338)”, Rockville, Md.: U.S. Department of Health, Education, and Welfare, Public Health Service, Alcohol, Drug Abuse, and Mental Health Administration, NIMH Psychopharmacology Research Branch, Division of Extramural Research Programs; 1976, pp 218-222). Participants assessed their severity of anxiety on the Generalized Anxiety Disorder 7-item (GADS-7) Scale (See, Tables 157 and 15). See, Spitzer, “A brief measure for assessing generalized anxiety disorder—the GAD-7”, Arch. Intern. Med., 2006, 166(10):1092-1097.

[3] = system: patients with treatment-resistant depression (TRD); experiment: BPRS positive symptom subscale, Example 7; parameters: species or system human; conditions: in vivo
Procedure: Adverse events were monitored throughout the study. Other safety assessments (i.e., laboratory tests, vital signs, physical examination) were performed at pre-specified time points. Vital signs, the Clinician Administered Dissociative States Scale (CADSS; Bremner, “Measurement of dissociative states with the clinician-administered dissociative states scale (CADSS)”, J. Traumatic Stress, 1998, 11(1):125-136), and the 4-item positive symptom subscale from the Brief Psychiatric Rating Scale (BPRS; Overall, “The Brief Psychiatric Rating Scale. Psychological Reports”, 1962, 10:799-812) were assessed pre-dose, at 40 minutes, and 2 hours post-dose.

## CN[C@]1(c2ccccc2Cl)CCCCC1=O [esketamine, (S)-2-(2-chlorophenyl)-2-(methylamino)cyclohexanone]
[1]; 56 mg
  Proportion of responders (≥50% improvement from baseline in MADRS total score): 36.4%
[1]; 84 mg
  Proportion of responders (≥50% improvement from baseline in MADRS total score): 50.0%
[2]; 28 mg, Period 1
  GAD-7 LS mean difference from placebo: −0.21
[2]; 28 mg, Period 1, first day to day 8
  GAD-7 change from baseline, LS mean: −1.5
[2]; 28 mg, Period 2, first day to day 8 of period
  GAD-7 change from baseline, LS mean: −1.6
[2]; 56 mg, Period 1
  GAD-7 LS mean difference from placebo: −1.40
[2]; 56 mg, Period 1, first day to day 8
  GAD-7 change from baseline, LS mean: −3.1
[2]; 56 mg, Period 2
  GAD-7 LS mean difference from placebo: 0.60
[2]; 56 mg, Period 2, first day to day 8 of period
  GAD-7 change from baseline, LS mean: 1.0
[2]; 84 mg, Period 1, first day to day 8
  GAD-7 change from baseline, LS mean: −5.1
[2]; 84 mg, Period 2, first day to day 8 of period
  GAD-7 change from baseline, LS mean: −0.9
[3]
  Symptoms suggestive of psychosis (BPRS-positive assessment): No participant manifested symptoms suggestive of psychosis
